Laboratory results: patent publication EP4772500A1, “NOVEL ISOXAZOLE COMPOUND AS TM4SF5-SPECIFIC INHIBITOR AND USE THEREOF” (Seoul National University R&DB Foundation, priority 2023, dated 2025)

How the values were obtained:
[1] = system: C57BL/6 mice on Methionine-Choline Deficient (MCD) diet; test: MCD diet non-alcoholic steatohepatitis (NASH) mouse model; type: in vivo
Text: Wildtype (WT), Alb-TG^Tm4sf5-Flag, and Tm4sf5^-/- (Tm4sf5 gene-deficient) KO C57BL/6N mice were raised in a pathogen-free room animal facility where temperature and humidity were well controlled. For the experiment to establish the steatohepatitis NASH disease model, 22-week-old mice were used. For the induction of hepatic steatohepatitis through an MCD (TD.90262, Teklad) diet, 6-week-old male mice were randomly divided into normal chow diet (NCD, Purina, Cat # 38057) and MCD groups and allowed free access to the diet for 4 weeks (7 mice per group). When treating with drugs, intraperitoneal injection was performed at a concentration of 5 mg/kg twice a week. After the end of the experiment, liver tissues were obtained and analyzed through methods of H&E, immunohistochemistry tissue staining, Western blot, and qRT-PCR.
Normal 22-week-old C57BL/6 mice were randomly divided into a normal chow diet (NCD) group and a Methionine-Choline Deficient (MCD) diet group, which is a non-alcoholic steatohepatitis (NASH) induction diet, with 3 to 6 mice per group, and were allowed free access to the diets for 4 weeks. Simultaneously, vehicle (DMSO) or ST-2-001 at a concentration of 5 mg/kg was treated twice a week per animal via intraperitoneal injection (IP). After 4 weeks, liver tissues were obtained, and Masson's Trichrome staining showing the accumulation of collagen I (degree of fibrosis) and immunohistochemistry using antibodies against the given factors were performed. Representative images were obtained by randomly scanning the stained liver tissue sections using a digital slide scanner (MoticEasyScan, Motic, British Columbia, Canada). Additionally, tissue extracts were obtained from a portion of the liver tissues to perform Western blotting or qRT-PCR for the given factors, thereby confirming the mRNA and protein expression levels and phosphorylation degrees of signaling factors related to the induction of NASH-fibrosis symptoms and the regulation of T or NK cell activity. Meanwhile, in addition to the animal models, it was intended to confirm whether the expressions of TM4SF5, laminin γ2, and AFP correlate with each other at the hepatocyte level and are regulated by the TM4SF5-specific inhibitor isoxazole compound.

[2] = system: TM4SF5-non-expressing cells (SNU449Cp); test: 2D cell growth/proliferation, TM4SF5-non-expressing cells; type: cell-based, human; settings: 2D environment (FIG. 3a)
Protocol: The drugs treated were the positive control drug TSAHC or the ST-1-025 isoxazole compound at the given concentrations. From the time of starting culture (0 day), (FIG. 3a) in the case of 2D culture, the number of cells was measured after treating with the drug every 24 hours, or (FIG. 3b) in a 3D environment, the proliferation of cells (spheres) was observed and photographed with an optical microscope on the 5th and 7th days after a single drug treatment at the start of culture.

[3] = system: SNU449-TM4SF5 and Huh7-Con; test: qRT-PCR/Western blotting of laminin γ2, AFP and liver cancer markers in TM4SF5-expressing hepatocytes; type: cell-based, human; settings: 2.5 µM, 24 hours (FIG. 8h-i)
[4] = MCD diet, liver tissue extracts (FIG. 8c)

COc1ccc(-c2cc(-c3ccc(NC(C)=O)cc3)no2)cc1 [ST-2-001, N-(4-(5-(4-methoxyphenyl)isoxazole-3-yl)phenyl)acetamide]
NASH-fibrosis symptoms ([1]; MCD diet, 5 mg/kg IP twice a week, 4 weeks, tissue staining (FIG. 8a)): clearly inhibited
CPT1 (carnitine palmitoyltransferase 1) [1, 4]: rather increased
expressions and levels of fibrosis-related factors, factors related to lipogenesis and steatosis, and cytokines/chemokines related to inflammation [1, 4]: suppressed
α-Sma, Afp, and Pd-ll expression ([1]; MCD diet, liver tissue extracts, Western blotting (FIG. 8b)): decreased
mRNA levels for lipogenesis (Acc, Dgat2, Fasn) and activation of Kupffer cells (Trem2, Tim4, Clec4j) ([1]; MCD diet, liver tissues, qRT-PCR (FIG. 8d)): inhibited
effect on the liver tissue or the expression of the stained factors ([1]; NCD (normal chow diet), 5 mg/kg IP twice a week (FIG. 8a)): had no effect
expression of α-Sma, Afp, Pd-l1 ([1]; NCD, liver tissue extracts, Western blotting (FIG. 8b)): slightly decreased

COc1ccc(-c2cc(-c3ccc(N)cc3)no2)cc1 [ST-1-025, 4-(5-(4-methoxyphenyl)isoxazole-3-yl)aniline]
growth or proliferation [2]: no significant difference

Cc1ccc(C(=O)Nc2ccc(-c3cc(-c4ccc(O)cc4)no3)cc2)cc1 [ST-5-002, N-(4-(3-(4-hydroxyphenyl)isoxazole-5-yl)phenyl)-4-methylbenzamide]
elevated expressions of laminin γ2, AFP, phosphorylation of STAT3, FUCA and CD34 [3]: inhibited
